Measurements reported in patent publication US10947218B2, “Aminopyridine derivatives and their use as selective ALK-2 inhibitors” (priority 2016, dated 2021).
Counter-ions that a name gives are not always drawn.

Key:
[1] = Solubility in aqueous media (25° C., 24 h equilibration); format: physicochemical; conditions: pH 9.0 borate buffer/8.6, target concentration 2 mg/mL
[2] = Dynamic Vapor Sorption (physical stability versus relative humidity); format: physicochemical
Description: The peaks found are: Wave number (in cm^−1): 3241(m), 2951(w), 2867(w), 1669(m), 1538(m), 1456(w), 1355(m), 1249(m), 1087(w), 979(w), 885(w), 797(w). […] Then 3 mL of heptane were added into the solution. White solid precipitated out. The solid was separated by suction filtration and dried at 40° C. under vacuum overnight. 380 mg of a fumarate salt amorphous form of 2-amino-N-(4-hydroxybicyclo[2.2.2]octan-1-yl)-5-(4-((1R,5S)-3-(tetrahydro-2H-pyran-4-yl)-3-azabicyclo[3.1.0]hexan-1-yl)phenyl)nicotinamide was obtained as a white solid. […] Resulting mixture was stirred at 50° C. for 0.5 hour and a clear solution was obtained. To the solution was slowly added a solution of 695.2 mg in 10 mL of acetone:water (95:5, v/v). Resulting suspension was gradually cooled to 25° C. and was kept stirring for 24 hours. Add 1.5 mL water to the suspension. The mixture was kept stirring at 50° C. for 12 hours and slowly cooled to 25° C. Solid was separated by suction filtration, washed with 10 mL acetone:water (90:10, v/v) once, and exposed to an ambient environment (about 25° C., 50% RH) overnight. […]

solubility [1] | SMILES | physical stability over relative humidity (DVS) ([2]; 25° C., FIG. 15) | physical stability over relative humidity (DVS) ([2]; 40° C., FIG. 16)
<LOQ | Nc1ncc(-c2ccc([C@@]34C[C@@H]3CN(C3CCOCC3)C4)cc2)cc1C(=O)NC12CCC(O)(CC1)CC2 [Free form Modification HA, 2-amino-N-(4-hydroxybicyclo[2.2.2]octan-1-yl)-5-(4-((1R,5S)-3-(tetrahydro-2H-pyran-4-yl)-3-azabicyclo[3.1.0]hexan-1-yl)phenyl)nicotinamide] |  | 
 | Nc1ncc(-c2ccc([C@@]34C[C@@H]3CN(C3CCOCC3)C4)cc2)cc1C(=O)NC12CCC(O)(CC1)CC2 [Fumarate salt Modification HA, 2-amino-N-(4-hydroxybicyclo[2.2.2]octan-1-yl)-5-(4-((1R,5S)-3-(tetrahydro-2H-pyran-4-yl)-3-azabicyclo[3.1.0]hexan-1-yl)phenyl)nicotinamide] | physically stable at least from 0% to 90% RH | physically stable at least from 10% to 90% RH
